Data: patent US11135252B2, “Probiotic therapies for developmental disorders and other neurological disorders” (Baylor College of Medicine, priority 2016, dated 2021)
Entries after “also recorded” stand apart in the source; their conditions may differ.

Columns and labels:
MHFD offspring [1] = test: Three-chamber social test in MHFD offspring; type: in vivo, mice; conditions: for preference for social novelty / sociability: intranasal oxytocin approximately 200 μg/kg, 30 min prior; for preference for social novelty (time interacting with novel vs familiar mouse) / sociability (time interacting with mouse vs empty cage): in drinking water from weaning for 4 weeks, 1×10^8 organisms/mouse/day
Protocol: Crawley's three-chamber test for sociability and preference for social novelty was performed as described (Silverman et al., 2010). In brief, the mouse first experienced a 10-minute period of habituation during which it was allowed to freely explore a 60×40×23 cm Plexiglass arena divided into three equally sized, interconnected chambers (Left, Center, Right). Sociability was measured during a second ten-minute period in which the subject could interact either with an empty wire cup (Empty) or a wire cup containing an age and sex-matched stranger conspecific (Mouse 1). Time spent interacting (sniffing, crawling upon) with either the empty cup or the stranger mouse contained in the other cup as well as time spent in each chamber was recorded using the AnyMaze software, by independent observers. Empty cup placement in the Left or Right chamber during the Sociability period was counterbalanced between trials. Finally, preference for social novelty was assayed by introducing a second stranger mouse (Mouse 2) into the previously the empty wire cup. Time spent in each chamber as well as time spent interacting with either Mouse 1 or Mouse 2 was recorded using the automated AnyMaze software by independent observers. Lactobacillus reuteri MM4-1A (ATCC-PTA-6475) and Lactobacillus johnsonii (ATCC 33200) were cultured anaerobically in MRS broth in a 90% N2, 5% CO2, 5% H2 environment. L. reuteri was heat-killed by keeping the bacteria at 80° C. for 20 minutes (Wang et al., 2010). Bacterial viability was assessed by plating and the efficacy of the heat-kill procedure was confirmed by the absence of colony growth following plating. Cultures were centrifuged, washed, and resuspended in anaerobic solution (PBS) and frozen at −80° C. until use. PBS, live or heat-killed L. reuteri were added to the drinking water, which was changed daily to minimize dosage variability. Whereas the experimental group received live bacteria, one control group received identically prepared cultures of heat-killed bacteria. A second group of control mice received water treated with PBS alone. Live and heat-killed L. reuteri were supplied at a dosage of 1×10^8 organisms/mouse/day continuously in drinking water. Mice consumed the treated water ad libitum over the treatment period. The treated drinking water for each group was replaced daily two hours prior to the onset of the dark cycle to minimize variation in microbial exposure. Behavioral assays were initiated after 4-weeks of L. reuteri or control treatment. The protocol of the L. johnsonii preparation and administration matched the L. reuteri protocol. Fecal samples for sequencing and tissue used in the immunofluorescence studies were collected at the end of the treatment. Oxytocin was obtained from Tocris Bioscience (product 1910) and solubilized in 10% dimethyl sulfoxide (DMSO) in PBS. 10% DMSO in PBS was used as the vehicle control. Mice received oxytocin intranasally (at approximately 200 μg/kg) thirty minutes prior to behavior. 1.25 μl of oxytocin or vehicle solution was injected into each nostril from P10 pipette. Oxytocin dose was selected according to dosages reported to rescue social behavior in genetic models phenotypically expressing ASD-like behaviors (Penagarikano et al., 2015).

Cntnap2-deficient mice = conditions: mice lacking Cntnap2; oxytocin (Penagarikano et al., 2015; 2011); cited from earlier work
MHFD offspring [2] = test: Open field test in MHFD offspring; type: in vivo, mice; conditions: L. reuteri in drinking water
Protocol: Mice were placed in an open arena (40×40×20 cm) and allowed to explore freely for 10 minutes while their position was continually monitored using tracking software (ANY-Maze). Tracking allowed for measurement of distance traveled, speed, and position in the arena throughout the task. Time spent in the center of the arena, defined as the interior 20×20 cm, was recorded. Lactobacillus reuteri MM4-1A (ATCC-PTA-6475) and Lactobacillus johnsonii (ATCC 33200) were cultured anaerobically in MRS broth in a 90% N2, 5% CO2, 5% H2 environment. L. reuteri was heat-killed by keeping the bacteria at 80° C. for 20 minutes (Wang et al., 2010). Bacterial viability was assessed by plating and the efficacy of the heat-kill procedure was confirmed by the absence of colony growth following plating. Cultures were centrifuged, washed, and resuspended in anaerobic solution (PBS) and frozen at −80° C. until use. PBS, live or heat-killed L. reuteri were added to the drinking water, which was changed daily to minimize dosage variability. Whereas the experimental group received live bacteria, one control group received identically prepared cultures of heat-killed bacteria. A second group of control mice received water treated with PBS alone. Live and heat-killed L. reuteri were supplied at a dosage of 1×10^8 organisms/mouse/day continuously in drinking water. […]

Row | Compound | preference for social novelty (MHFD offspring [1]) | sociability (MHFD offspring [1]) | preference for social novelty (MHFD offspring [1]; listed as Oxytocin) | sociability (MHFD offspring [1]; listed as Oxytocin) | social behavioral abnormalities (Cntnap2-deficient mice) | preference for social novelty (time interacting with novel vs familiar mouse) (MHFD offspring [1]) | sociability (time interacting with mouse vs empty cage) (MHFD offspring [1]) | preference for social novelty (time interacting with novel vs familiar mouse) (MHFD offspring [1]; listed as live L. reuteri) | sociability (time interacting with mouse vs empty cage) (MHFD offspring [1]; listed as live L. reuteri) | preference for social novelty (chamber containing Mouse 2, FIG. 16B) (MHFD offspring [1]; in drinking water, 4 weeks) | sociability (chamber containing a mouse, FIG. 16A) (MHFD offspring [1]; in drinking water, 4 weeks) | time exploring the center of the open field arena (anxiety-related behavior) (MHFD offspring [2])
1 | CC[C@H](C)[C@@H]1NC(=O)[C@H](Cc2ccc(O)cc2)NC(=O)[C@@H](N)CSSC[C@@H](C(=O)N2CCC[C@H]2C(=O)N[C@@H](CC(C)C)C(=O)NCC(N)=O)NC(=O)[C@H](CC(N)=O)NC(=O)[C@H](CCC(N)=O)NC1=O [oxytocin] | improved | improved sociability | restored | restored | rescues the social behavioral abnormalities |  |  |  |  |  |  | 
2 | Lactobacillus reuteri MM4-1A (ATCC-PTA-6475) [L. reuteri] |  |  |  |  |  | significantly improved | significantly improved sociability | rescued | rescued sociability | improved | improved MHFD offspring sociability | failed to rescue the changes in anxiety; also recorded: did not significantly affect this behavior
